Legend:
[1] = test system: HPAF-II (Pancreatic Carcinoma); test: Bliss excess, mean over the matrix (fraction); higher = more synergy
Method in brief: (§1)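 Cell lines grown in DMEM/F12 or RPMI with 10% FBS were plated in 1536-well plates and held 24 hours at 37°C, 5% CO2 before 72 hours of exposure to two-drug dose matrices, with DMSO typically at 0.2%. CellTiter-Glo 2.0 luminescence gave viability, which was converted to inhibition. Vehicle wells were set to 0 and blank wells to 1. Combination Emax is the second-highest inhibition in the matrix, and Bliss excess is the observed combination effect minus the expected EA + EB − EA·EB, where EA and EB are the single-agent effects.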

[2] = test system: SKG-IIIa (Cervical Carcinoma); test: combination Emax (second highest fraction inhibited in the dose matrix, 72 h); higher = more inhibition; extreme values may be limits of the assay
Method in brief: as §1

[3] = test system: ZR-75-30 (Breast Carcinoma); test: as above
Method in brief: as §1

SK-N-SH (Neuroblastoma) = test: as above
Method in brief: as §1

[4] = test system: BxPC-3 (Pancreatic Carcinoma); test: as above
Method in brief: as §1

[5] = test system: BHT-101 (Thyroid Gland Carcinoma); test: as above
Method in brief: as §1

[6] = test system: LS-1034 (Colorectal Carcinoma); test: as above
Method in brief: as §1

[7] = test system: OVCAR-3 (Ovarian Carcinoma); test: as above
Method in brief: as §1

[8] = test system: C-33-A (Cervical Carcinoma); test: as above
Method in brief: as §1

KALS-1 (Glioblastoma) = test: as above
Method in brief: as §1

[9] = test system: MONO-MAC-6 (Acute Myeloid Leukemia); test: as above
Method in brief: as §1

[10] = test system: HT-1080 (Other Solid Carcinomas); test: as above
Method in brief: as §1

IST-MEL1 (Melanoma) = test: as above
Method in brief: as §1

[11] = test system: HPAF-II (Pancreatic Carcinoma); test: as above
Method in brief: as §1

[12] = test system: MOLP-8 (Plasma Cell Myeloma); test: as above
Method in brief: as §1

WM35 (Melanoma) = test: as above
Method in brief: as §1
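For Bliss excess, mean over the matrix in this document: after 72 h of two-drug dosing.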

| Structure (SMILES) | Bliss excess [1] | combination Emax [2] | combination Emax [3] | combination Emax (SK-N-SH (Neuroblastoma)) | combination Emax [4] | combination Emax [5] | combination Emax [6] | combination Emax [7] | combination Emax [8] | combination Emax (KALS-1 (Glioblastoma)) | combination Emax [9] | combination Emax [10] | combination Emax (IST-MEL1 (Melanoma)) | combination Emax [11] | combination Emax [12] | combination Emax (WM35 (Melanoma)) |
| --- | --- | --- | --- | --- | --- | --- | --- | --- | --- | --- | --- | --- | --- | --- | --- | --- |
| Cn1cnc2c(F)c(Nc3ccc(Br)cc3Cl)c(C(=O)NOCCO)cc21 [Selumetinib] + CC(C)n1c(=O)n(C)c2cnc3cc(F)c(-c4ccc(OCCCN5CCCCC5)nc4)cc3c21 [AZD1390] (first compound max 10 µM, 7x7, partner max 0.3 µM) | 0.0088 | 0.2 | 0.0506 | 0.146 | 0.4 | 0.791 | 0.689 | 0.048 | 0.264 | 0.405 | 0.231 | 0.261 | 0.289 | 0.64 | 0.325 | 0.65 |
| Cn1cnc2c(F)c(Nc3ccc(Br)cc3Cl)c(C(=O)NOCCO)cc21 [Selumetinib] + CCN(CCO)CCCOc1ccc2c(Nc3cc(CC(=O)Nc4cccc(F)c4)[nH]n3)ncnc2c1 [AZD2811] (first compound max 10 µM, 7x7, partner max 1 µM) | 0.0129 | 0.321 | 0.111 | 0.289 | 0.407 | 0.846 | 0.671 | 0.182 | 0.324 | 0.417 | 0.703 | 0.387 | 0.361 | 0.682 | 0.417 | 0.664 |
| Cn1cnc2c(F)c(Nc3ccc(Br)cc3Cl)c(C(=O)NOCCO)cc21 [Selumetinib] + C[C@@H]1COCCN1C2=NC(=NC(=C2)C3(CC3)[S@](=N)(=O)C)C4=C5C=CNC5=NC=C4 [AZD6738] (first compound max 10 µM, 7x7, partner max 10 µM) | 0.0119 | 0.214 | 0.111 | 0.769 | 0.494 | 0.883 | 0.811 | 0.4 | 0.894 | 0.681 | 0.931 | 0.461 | 0.74 | 0.768 | 0.832 | 0.767 |
